The source of these data is patent US20250195491A1 (AEVIS BIO, INC., priority 2022, published 2025).

The test system of this assay is Aiolos and Ikaros. Nature of the assay: Aiolos and Ikaros degradation by immunoblotting in MM.1S cells. As to conditions: immunoblot. The format is cell-based, human. The protocol: To this end, the MM.1S cell line was cultured in an RPMI medium (Corning, MD, USA) supplemented with 10% fetal bovine serum (Corning, MD, USA), 100 U/mL of penicillin (Corning, MD, USA), and 100 μg/mL of streptomycin (Corning, MD, USA) at 37° C. in a 5% CO2 incubator. […] The cells were disrupted by adding a RIPA buffer containing a protease inhibitor cocktail (Thermo Fisher Scientific) and centrifuged at 14,000 rpm for 15 minutes at 4° C. to obtain a cell extract. Equal amounts of the cell extract were loaded, and proteins were separated through SDS-PAGE and then transferred to a PVDF membrane. The protein-transferred membrane was blocked using skim milk, incubated with a primary antibody for 3 hours at room temperature, and then incubated with an HRP-conjugated secondary antibody for 1 hour at room temperature. The resulting product was washed with TBS-T three times between steps. Detection was performed using a chemoluminescence reagent (Thermo Fisher Scientific), and confirmed using Chemidoc (iBright CL1500, Invitrogen, CA, USA). Aiolos (#15103), Ikaros (#9034) and GAPDH (#2118S) antibodies used as primary antibodies and a secondary antibody were purchased from Cell Signaling Technology (Danvers, MA, USA).
Additionally, the expression of Aiolos and Ikaros, mediated by 3-MP, was confirmed over time. […]

`Nc1cccc2c1C(=S)N(C1CCC(=O)NC1=O)C2=O` (centres unmarked) [3-MP, 3-thiopomalidomide]: the “expression of Aiolos and Ikaros over time” value (10 μM, 1, 4, 8, 12, or 24 hours, FIG. 3B) is “does not reduce the expression of Aiolos and Ikaros”. Moreover, for the setting “0.000128-10 μM, 4 hours, FIG. 3A”, the “expression of Aiolos and Ikaros, by concentration” value was “does not reduce the expression of Aiolos and Ikaros”.
